The values that follow come from PubChem BioAssay (NCI).

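These data come from cells grown in 96-well plates and exposed to compound for 48 hours at five concentrations. GI50 marks 50% less growth. TGI denotes the concentration required for complete inhibition of growth.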

Test systems include A498 renal; HCT-116 colon; HL-60(TB) leukemia; K-562 leukemia; NCI-H226 lung; NCI-H460 lung; NCI-H522 lung; SF-268 CNS; SK-MEL-2 melanoma; TK-10 renal.
Assay in all cases: inhibition of tumour cell growth, NCI panel, 48 h

As for `Cc1cc(C(=O)Nc2n[nH]c3ccccc23)n[nH]1`, the GI50 in the assay with A498 renal is more than 100 µM; in the assay on HCT-116 colon, more than 100 µM; with HL-60(TB) leukemia, 75.2 µM; with K-562 leukemia, more than 100 µM; in the assay on NCI-H226 lung it was more than 100 µM; in the assay on NCI-H460 lung, more than 100 µM. For the same compound, the GI50 in the assay with NCI-H522 lung, with SF-268 CNS, in the assay on SK-MEL-2 melanoma and in the assay with TK-10 renal was more than 100 µM in each case. Further, the TGI with A498 renal, in the assay with HCT-116 colon, in the assay with HL-60(TB) leukemia, in the assay on K-562 leukemia, in the assay with NCI-H226 lung and in the assay with NCI-H460 lung was more than 100 µM each time. Moreover, the TGI in the assay with NCI-H522 lung, in the assay on SF-268 CNS, with SK-MEL-2 melanoma and in the assay with TK-10 renal was more than 100 µM throughout.
Turning to `CC[C@@]1(OC(=O)C(N)CCCCN)C(=O)OCc2c1cc1n(c2=O)Cc2cc3ccccc3nc2-1` (some centres undefined), the TGI was 0.455 µM in the assay with A498 renal; 0.495 µM with HCT-116 colon; 0.127 µM with HL-60(TB) leukemia; more than 33.1 µM in the assay with K-562 leukemia; 2.7 µM with NCI-H226 lung; 0.372 µM with NCI-H460 lung. The TGI stood at 2.39 µM with NCI-H522 lung, 11.9 µM in the assay with SF-268 CNS, 1.39 µM in the assay with SK-MEL-2 melanoma and 65.9 µM in the assay with TK-10 renal.
As for `C=C1C(=O)OC2C1C(OC(=O)/C(C)=C/C)CC(O)(CCl)C1C(O)C=C(C)C21O` (centres undefined), the TGI in the assay on A498 renal was more than 60.1 µM; in the assay on HCT-116 colon it was 18.9 µM; in the assay on HL-60(TB) leukemia, 18 µM; in the assay with K-562 leukemia, more than 100 µM; with NCI-H226 lung, 46.5 µM; in the assay with NCI-H460 lung, 36.2 µM. In addition, the TGI with NCI-H522 lung is 3.29 µM; in the assay with SF-268 CNS, more than 69.5 µM; in the assay on SK-MEL-2 melanoma, more than 50.3 µM; in the assay with TK-10 renal it was 27.6 µM.
In the case of `Cc1ccc(S(=O)(=O)NC(=O)NCCc2ccccc2)cc1`, the TGI with A498 renal, in the assay on HCT-116 colon, in the assay on HL-60(TB) leukemia, in the assay on K-562 leukemia, with NCI-H226 lung and with NCI-H460 lung was more than 100 µM each time. In addition, the TGI in the assay with NCI-H522 lung, in the assay with SF-268 CNS, in the assay with SK-MEL-2 melanoma and in the assay on TK-10 renal was more than 100 µM each time.
Regarding `Cc1ccc(S(=O)(=O)OCC#CCOS(=O)(=O)c2ccc(C)cc2)cc1`, the GI50 with A498 renal is 4.34 µM; in the assay with HCT-116 colon, 2.08 µM; in the assay with HL-60(TB) leukemia, 1.51 µM; in the assay on K-562 leukemia, 2.29 µM; with NCI-H226 lung, 5.83 µM; in the assay on NCI-H460 lung, 1.8 µM. Also, the GI50 is 1.19 µM in the assay with NCI-H522 lung, 1.79 µM in the assay on SF-268 CNS, 3.07 µM in the assay with SK-MEL-2 melanoma and 2.37 µM in the assay with TK-10 renal. Also, the TGI was 11.7 µM in the assay with A498 renal; 5.47 µM in the assay with HCT-116 colon; 3.55 µM in the assay with HL-60(TB) leukemia; 10.3 µM with K-562 leukemia; 12.9 µM in the assay with NCI-H226 lung; 4.07 µM in the assay on NCI-H460 lung. The TGI in the assay on NCI-H522 lung is 3.12 µM; with SF-268 CNS it was 3.87 µM; with SK-MEL-2 melanoma it was 9.66 µM; with TK-10 renal it was 6.27 µM.
Turning to `O=C(Nc1cccc(-n2cc(-c3ccncc3)c(-c3ccc(O)c(Cl)c3)n2)c1)c1ccc2c(c1)OCCO2`, the GI50 with A498 renal is more than 100 µM; in the assay on HCT-116 colon, 5.44 µM; in the assay with HL-60(TB) leukemia, 4.54 µM; in the assay on K-562 leukemia, 4.26 µM; with NCI-H226 lung it was 12.2 µM; with NCI-H460 lung, 6.2 µM. Also, the GI50 was 6.25 µM in the assay with NCI-H522 lung, more than 100 µM in the assay on SF-268 CNS, more than 100 µM in the assay with SK-MEL-2 melanoma and more than 100 µM with TK-10 renal. Also, the TGI in the assay on A498 renal, in the assay on HCT-116 colon, in the assay on HL-60(TB) leukemia, with K-562 leukemia, in the assay with NCI-H226 lung and in the assay with NCI-H460 lung was more than 100 µM throughout. Moreover, the TGI with NCI-H522 lung, in the assay with SF-268 CNS, with SK-MEL-2 melanoma and in the assay on TK-10 renal was more than 100 µM throughout.
Take `Cc1cccc(C)c1NC(=O)CCc1nnc2s/c(=C\c3ccc(N(C)C)cc3)c(=O)n12`: the TGI in the assay with A498 renal, with HCT-116 colon, in the assay with HL-60(TB) leukemia, with K-562 leukemia, in the assay with NCI-H226 lung and with NCI-H460 lung was more than 100 µM in each case. For the same compound, the TGI in the assay on NCI-H522 lung, with SF-268 CNS, with SK-MEL-2 melanoma and with TK-10 renal was more than 100 µM in each case.
For the compound `COc1cccc(/C=C/c2nc3c(cnn3-c3ccccc3)c(=O)[nH]2)c1`, the GI50 was more than 100 µM with A498 renal; 12 µM with HCT-116 colon; more than 62.8 µM in the assay on HL-60(TB) leukemia; more than 100 µM in the assay on NCI-H226 lung; more than 81.8 µM with NCI-H460 lung; more than 100 µM in the assay with NCI-H522 lung. The values for the GI50 in the assay on SF-268 CNS, in the assay on SK-MEL-2 melanoma and with TK-10 renal were more than 55.6 µM, more than 100 µM and more than 28.2 µM, respectively. Moreover, the TGI in the assay with A498 renal, in the assay on HCT-116 colon, in the assay on HL-60(TB) leukemia, with K-562 leukemia, in the assay with NCI-H226 lung and with NCI-H460 lung was more than 100 µM in each case. Besides, the TGI with NCI-H522 lung, in the assay with SF-268 CNS, with SK-MEL-2 melanoma and with TK-10 renal was more than 100 µM in each case.
As for `O=c1c2cc(Br)cc(Br)c2nc(CCCl)n1-c1ccc(O)c([N+](=O)[O-])c1`, the TGI was found to be 52 µM with A498 renal; 28.1 µM in the assay with HCT-116 colon; 42.9 µM in the assay with HL-60(TB) leukemia; 61.9 µM with K-562 leukemia; 37.1 µM with NCI-H226 lung; 42.1 µM with NCI-H460 lung. For the same compound, the TGI in the assay on NCI-H522 lung is 23.5 µM; with SF-268 CNS, 37.9 µM; in the assay on SK-MEL-2 melanoma it was 34.6 µM; in the assay on TK-10 renal, 32.7 µM.
